The record followed here is patent US20080058351A1, “Novel heterobicyclic compounds” (Concert Pharmaceuticals Inc., priority 2006, published 2008).

For data set [1], the target named is benzodiazepine receptor of the rat cerebral cortex. Nature of the data set: Benzodiazepine receptor binding, competition with [3H]flunitrazepam. To be noted: [3H]flunitrazepam 0.4 nM, 4° C., 60 minutes. The procedure: Benzodiazepine Receptor Binding. Compound 1 and Indiplon were compared in their ability to bind to compete with [^3H] flunitrazepam (0.4 nM) for binding to the benzodiazepine receptor of the rat cerebral cortex using the method of Speth, R C et al., 1979, Life Sci., 24:351-358. Varying concentrations of Indiplon or Compound 1 (30 pM-1 μM) were used. Diazepam (3 μM) was used as a non-specific receptor binding compound. Binding was allowed to proceed at 4° C. for 60 minutes. Quantification of binding was determined by scintillation counting.

The nature of data set [2]: Co-incubation of Compound 1 and Indiplon with human liver microsomes. The data set is classed as in vitro ADME. Here is the method:
Co-incubation of Compound 1 and Indiplon with Human Liver Microsomes: In another set of experiments Compound 1 and Indiplon were incubated together with human liver microsomes and their metabolism followed over time to eliminate any potential variability in samples. The reaction mixture compositions utilized in these experiments were as follows:
Reaction Mixture Composition A:
Reaction Mixture Composition B:
Reaction Mixture Composition C:
HPLC-grade solvents were used for preparation of all solutions. Dosing solutions of test agents were initially prepared at five times the final concentrations of the various reaction mixtures indicated above. Dosing solutions were warmed to 37° C. prior to the start of the assay. Two sets of triplicate wells were prepared in a 96-well deep well plate for each reaction mixture and warmed to 37° C. At the start of the assay, dosing solutions were diluted five-fold into the reaction wells. The reaction plate was incubated at 37° C., and 30 μL aliquots removed immediately after start (15 sec), and after each of 10 min, 20 min, 30 min, 40 min and 60 min of reaction. The aliquots were added to 30 μL of ice cold STOP Solution (acetonitrile containing 0.3% acetic acid with 3 mM haloperidol as an internal standard) in a separate 96-well plate. The stopped reactions were incubated at least 10 min at −20° C., and 30 μL of water was added. The plates were centrifuged for 15 min at 2000 rpm, 4° C. Approximate 60 μL of the supernatant was removed without disturbing the pellet and transferred to a fresh 96-well plate for analysis. Analysis samples were stored at −20° C. and analyzed by LC-MS.
On the technique in general: Liver microsomes are a subcellular fraction often used to study metabolism.

Data set [3] is described as follows: Human liver microsome metabolic stability assay (separate incubations). The data set is classed as in vitro ADME. The following applies: 1.0 mg/mL human liver microsomes. From the text:
Human Microsomal Assay: The metabolic stability of the present compounds may be evaluated in one or more microsomal assays that are known in the art. See, for example, Obach, R. S. Drug Metab Disp 1999, 27, p. 1350 “Prediction of human clearance of twenty-nine drugs from hepatic microsomal intrinsic clearance data: An examination of in vitro half-life approach and nonspecific binding to microsomes”; Houston, J. B. et al., Drug Metab Rev 1997, 29, p. 891 “Prediction of hepatic clearance from microsomes, hepatocytes, and liver slices”; Houston, J. B. Biochem Pharmacol 1994, 47, p. 1469 “Utility of in vitro drug metabolism data in predicting in vivo metabolic clearance”; Iwatsubo, T et al., Pharmacol Ther 1997, 73, p. 147 “Prediction of in vivo drug metabolism in the human liver from in vitro metabolism data”; and Lave, T. et al., Pharm Res 1997, 14, p. 152 “The use of human hepatocytes to select compounds based on their expected hepatic extraction ratios in humans”; each of which are incorporated herein in their entirety.
The objectives of this study were to determine the metabolic stability of the test compounds in pooled liver microsomal incubations and to perform full scan LC-MS analysis for the detection of major metabolites. Samples of the test compounds, exposed to pooled human liver microsomes, were analyzed using HPLC-MS (or MS/MS) detection. For determining metabolic stability, multiple reaction monitoring (MRM) was used to measure the disappearance of the test compounds. For metabolite detection, Q1 full scans were used as survey scans to detect the major metabolites.
Experimental Procedures: Human liver microsomes were obtained from Absorption Systems L.P. (Exton, Pa.). Details about the matrices used in the experiments are shown below. The incubation mixture was prepared as follows:
Reaction Mixture Composition
Incubation of Test Compounds with Liver Microsomes: The reaction mixture, minus cofactors, was prepared. An aliquot of the reaction mixture (without cofactors) was incubated in a shaking water bath at 37° C. for 3 minutes. Another aliquot of the reaction mixture was prepared as the negative control. The test compound was added into both the reaction mixture and the negative control at a final concentration of 1 μM. An aliquot of the reaction mixture was prepared as a blank control, by the addition of plain organic solvent (not the test compound). The reaction was initiated by the addition of cofactors (not into the negative controls), and then incubated in a shaking water bath at 37° C. Aliquots (200 μL) were withdrawn in triplicate at 0, 15, 30, 60, and 120 minutes and combined with 800 μL of ice-cold 50/50 acetonitrile/dH2O to terminate the reaction. The positive controls, testosterone and propranolol, were run simultaneously with the test compounds in separate reactions.
All samples were analyzed using LC-MS (or MS/MS). An LC-MRM-MS/MS method was used for metabolic stability. Also, Q1 full scan LC-MS methods were performed on the blank matrix and the test compound incubation samples. The Q1 scans served as survey scans to identify any sample unique peaks that might represent the possible metabolites. The masses of these potential metabolites can be determined from the Q1 scans.

For data set [4], the system named is GABAA receptor (rat cortex membranes). Nature of the data set: Enhancement of [35S]TBPS binding to rat cortex membranes. From the text:
A further index of activity at the benzodiazepine site on the GABAA receptor is the ability to increase the binding of [^35S] t-butylbicyclophosphorothionate (TBPS) to rat cortex membranes. TBPS binds to a site on the GABAA receptor which is closely associated with the chloride channel, and an increase in TBPS binding correlates with increased activation of the chloride conductance (i.e., enhanced GABAA receptor function). Compounds which act as agonists at the benzodiazepine site increase TBPS binding to varying degrees, which reflects their relative efficacies.

Data set [5] addresses benzodiazepine site on the GABAA receptor (rat cortex). Briefly: Inhibition of [3H]flunitrazepam binding to rat cortex membranes. The following applies: read-out: IC50 for displacing [3H]flunitrazepam binding to rat cortex.

On to `CC(=O)N(C)c1cccc(-c2ccnc3c(C(=O)c4cccs4)cnn23)c1` [Compound 1, N-d3-Methyl-N-{3-[3-(thiophene-2-carbonyl)-pyrazolo[1,5-a]pyrimidin-7-yl]-phenyl}-acetamide], for which, in data set [1], the half-maximal inhibitory concentration (IC50) came out at 2.9 nM and affinity was put at a Ki of 2.4 nM.

With `[2H]C([2H])([2H])N(C(C)=O)c1cccc(-c2ccnc3c(C(=O)c4cccs4)cnn23)c1` [Compound 1, N-d3-Methyl-N-{3-[3-(thiophene-2-carbonyl)-pyrazolo[1,5-a]pyrimidin-7-yl]-phenyl}-acetamide], the half-life in data set [2] (0.1 μM each, 1.0 mg/ml human microsomes (FIG. 1 panel B)) turned out to be 4.557 h; in data set [2] (0.2 μM each, 2.0 mg/ml human microsomes (FIG. 1 panel C)), 2.543 h; in data set [2] (0.5 μM each, 1.0 mg/ml human microsomes (FIG. 1 panel A)), 3.405 h. The “ratio of half lives of Compound 1 to Indiplon” value in data set [2] (0.1 μM each, 1.0 mg/ml human microsomes (panel B)) turned out to be 1.257; in data set [2] (0.2 μM each, 2.0 mg/ml human microsomes (panel C)), 1.312; in data set [2] (0.5 μM each, 1.0 mg/ml human microsomes (panel A)) it was 1.260; in data set [3] (1 μM) it was 1.261. In data set [3] (1 μM test compound), the half life is 1.24 h. In addition, the “% remaining after 60 minutes of exposure” value in data set [3] (1 μM test compound) stood at 66%. Besides, in data set [3] (1 μM test compound), the “% remaining after 120 minutes of exposure” value is 59%.

Turning to `CCN(CC)CCN1C(=O)CN=C(c2ccccc2F)c2cc(Cl)ccc21` [flurazepam], the “Emax (maximum enhancement of TBPS binding over the concentration range employed)” value in data set [4] is 71%.

Consider `Cc1nnc2n1-c1ccc(Cl)cc1C(c1ccccc1Cl)=NC2` [triazolam], for which the half-inhibitory concentration (IC50) in data set [5] is 0.5 nM. For the same molecule, in data set [4], the “Emax (maximum enhancement of TBPS binding over the concentration range employed)” value came out at 78%.

As for `CN1C(=O)CN=C(c2ccccc2)c2cc(Cl)ccc21` [diazepam], the IC50 in data set [5] is 17 nM. In addition, the “Emax (maximum enhancement of TBPS binding over the concentration range employed)” value in data set [4] is given as 55%.

Turning to `Cc1ccc(-c2nc3ccc(C)cn3c2CC(=O)N(C)C)cc1` [zolpidem], the IC50 in data set [5] was found to be 26 nM.

Regarding `CN1C(=O)CN=C(c2ccccc2F)c2cc([N+](=O)[O-])ccc21` [flunitrazepam], in data set [5], the IC50 was found to be 114 nM.

In data set [1], `CC(=O)N(C)c1cccc(-c2ccnc3c(C(=O)c4cccs4)cnn23)c1` [Indiplon, N-methyl-N-[3-[3-(2-thienylcarbonyl)-pyrazolo[1,5-a]pyrimidin-7-yl]phenyl]acetamide] displayed a half-maximal inhibitory concentration (IC50) of 3.6 nM and an inhibition constant Ki of 3 nM. The half-life at 0.1 μM in data set [2] (human liver microsomes, 0.1 μM each, 1.0 mg/ml human microsomes (FIG. 1 panel B)) amounted to 3.62 h. Also, the half-life at 0.2 μM in data set [2] (human liver microsomes, 0.2 μM each, 2.0 mg/ml human microsomes (FIG. 1 panel C)) came out at 1.94 h. In addition, in data set [2] (human liver microsomes, 0.5 μM each, 1.0 mg/ml human microsomes (FIG. 1 panel A)), the half-life at 0.5 μM is 2.7 h. Moreover, in data set [3] (1 μM test compound), the “% remaining after 60 minutes of exposure” value came to 50% and the “% remaining after 120 minutes of exposure” value was 42%. For the same molecule, the half-life at 1 μM in data set [3] (pooled human liver microsomes, 1 μM test compound) amounted to 0.983 h.

Broadly, the IC50 is the point on the concentration scale where inhibition reaches its midpoint. As usually defined, the Ki is a measure of affinity in units of concentration, obtained from inhibition or displacement. Lower therefore signals a stronger hold on the target. Usually half-life stands for how long it takes for the measured level to halve.
